Data taken from patent US20050165085A1, “Polymorphic forms of tegaserod base and salts thereof” (priority 2003, published 2005).
“Also recorded” adds a separate entry of the source. Blank lines part the entries; values can stand above or below the compound they belong to.

Experiments:
[1] = Heating of tegaserod maleate polymorphic forms, form after heating; assay type: physicochemical; conditions: for Polymorphic transformation / thermal stability upon heating: statement in text, temperature not given
Description: X-Ray powder diffraction data were obtained using by method known in the art using a SCINTAG powder X-Ray diffractometer model X'TRA equipped with a solid state detector. Copper radiation of 1.5418 Å was used. A round aluminum sample holder with zero background was used. All peak positions are within ±0.2 degrees two theta.

[2] = Physician's Desk Reference, 57th Ed., cited from earlier work
[3] = Solubility of tegaserod acetate Form J compared with tegaserod base; assay type: physicochemical; conditions: solvent not stated

Compound: CCCCCNC(=N)N/N=C/c1c[nH]c2ccc(OC)cc12.O=C(O)/C=C\C(=O)O [Form B1, Tegaserod maleate]
Polymorphic transformation upon heating, assumed from DSC curves ([1]; assumed from DSC curves, all forms show the melting peak of Form A): transform to Form A upon heating

Compound: CCCCCNC(=N)N/N=C/c1c[nH]c2ccc(OC)cc12.O=C(O)/C=C\C(=O)O [Form B, Tegaserod maleate]
Polymorph form after heating ([1]; 2 hr. at 100 deg., listed as B (wet)): B > C + A
Polymorph form after heating ([1]; 2 hr. at 120 deg., listed as B (wet)): A > C
Polymorphic transformation / thermal stability upon heating [1]: transform to Form C upon heating before it transforms to Form A
Polymorphic transformation / thermal stability upon heating ([1]; listed as B): transform to Form A upon heating

Compound: CCCCCNC(=N)N/N=C/c1c[nH]c2ccc(OC)cc12.O=C(O)/C=C\C(=O)O [Form B2, Tegaserod maleate]
Polymorph form after heating ([1]; 2 hr. at 80 deg.): B + C + A
Polymorph form after heating ([1]; 2 hr. at 100 deg.): B + C + A
Polymorph form after heating ([1]; 2 hr. at 120 deg.): C + A
Polymorph form after heating ([1]; 2 hr. at 140 deg., listed as B2): C + A
Polymorphic transformation / thermal stability upon heating [1]: transform to Form A upon heating

Compound: CCCCCNC(=N)N/N=C/c1c[nH]c2ccc(OC)cc12.O=C(O)/C=C\C(=O)O [tegaserod as the maleate salt, Tegaserod maleate]
Solubility in ethanol ([2]; ethanol): slightly soluble
Solubility in water ([2]; water): very slightly soluble

Solubility relative to tegaserod base [3]: less soluble than tegaserod base
Compound: Tegaserod acetate [Tegaserod acetate Form J]

Compound: CCCCCNC(=N)N/N=C/c1c[nH]c2ccc(OC)cc12.O=C(O)/C=C\C(=O)O [Form D, Tegaserod maleate]
Polymorphic transformation / thermal stability upon heating [1]: transformation to Form A; also recorded: transforms to Form A upon heating

Compound: CCCCCNC(=N)N/N=C/c1c[nH]c2ccc(OC)cc12.O=C(O)/C=C\C(=O)O [Form A, Tegaserod maleate, reference compound]
Polymorphic transformation / thermal stability upon heating [1]: exhibits thermal stability at higher temperatures

Compound: CCCCCNC(=N)N/N=C/c1c[nH]c2ccc(OC)cc12.O=C(O)/C=C\C(=O)O [Form C, Tegaserod maleate]
Polymorph form after heating ([1]; 2 hr. at 140 deg., listed as C): C > A
Polymorphic transformation / thermal stability upon heating ([1]; listed as C): transform to Form A upon heating
